Measured values taken from article PMC9549030, “Structural basis for specific inhibition of the deubiquitinase UCHL1” (Nature Communications, 2022).
“And” between values parts separate entries of the source, which are not always exact repeats. Identical values can stand only once. Like-named read-outs stand apart in the source and are kept apart here.

What was measured:
UCHL1 in HEK293 cells = system: T1, UCHL1 in HEK293 cells; test: Cellular Ub-probe (HA-Ub-VS) competition, inhibition of cellular UCHL1; format: cell-based, human
T1 construct: Western blot analysis of endogenous UCHL1 labeled with HA-Ub-VS after treatment of HEK293 cells; endogenous in cells; host or cells: HEK293
Procedure: Proteins were transferred to a polyvinylidene fluoride (PVDF, only experiments in Fig. 4e and Supplementary Fig. 7e, f) or nitrocellulose (all other experiments) membrane using a Trans-Blot Turbo system (Bio-Rad, 1.3 A, 25 V, 10 min). The membranes were blocked with 5% (m/v) nonfat milk in PBS-T buffer and incubated with indicated primary antibodies (anti-UCHL1, 1:1000, Cell Signaling, D3T2E; anti-PARK7, 1:1000, Cell Signaling, D29E5; anti-Tubulin, 1:4000, Sigma, T6199; anti-Hemagglutinin, 1:1000, BioLegend, 16B12; anti-flag, 1:2000, Sigma, F3165; anti-Ubiquitin, 1:1000, Cell Signaling, P4D1; anti-Ubiquitin, 1:300, Santa Cruz, P4D1, sc-8017; anti-UCHL3, 1:1000, Proteintech, 12384-1-AP) overnight. Then the membranes were incubated with the respective secondary antibody (anti-mouse,1:5000, Sigma, NXA931; anti-rabbit, 1:5000, Sigma, GENA934) coupled to horseradish peroxidase. The chemiluminescent reaction was initiated using a Clarity Western ECL substrate (Bio-Rad) and images were taken on a ChemiDoc MP Imaging System (Bio-Rad).
The total protein concentration was adjusted to 2 mg/ml by diluting each sample with ABP lysis buffer. A final concentration of 1 µM HA-Ub-VS probe was added, followed by incubation for 30 min at 37 °C. The labeling reaction was quenched by the addition of 4x LDS sample buffer. The samples were separated via SDS-PAGE and further analyzed via western blotting as described above.

UCHL1 [1] = biological target: T2, UCHL1 (Homo sapiens, UniProt P09936); test: Ub-Rhodamine (Ubiquitin rhodamine cleavage) assay; format: biochemical; settings: 1 h preincubation; for remaining activity at 0.000610352 µM: compound 0.610352 nM; for remaining activity at 0.0012207 µM: compound 1.2207 nM; for remaining activity at 0.00244141 µM: compound 2.44141 nM; for remaining activity at 0.00488281 µM: compound 4.88281 nM; for remaining activity at 0.00976562 µM: compound 9.76562 nM; for remaining activity at 0.0195312 µM: compound 19.5312 nM; for remaining activity at 0.0390625 µM: compound 39.0625 nM; for remaining activity at 0.078125 µM: compound 78.125 nM; for remaining activity at 0.15625 µM: compound 156.25 nM; for remaining activity at 0.3125 µM: compound 312.5 nM; for remaining activity at 0.625 µM: compound 625 nM; for remaining activity at 1.25 µM: compound 1250 nM; for remaining activity at 2.5 µM: compound 2500 nM; for remaining activity at 5 µM: compound 5000 nM; for remaining activity at 10 µM: compound 10000 nM; for remaining activity at 0.00050402 µM: compound 0.50402 nM; for remaining activity at 0.00151206 µM: compound 1.51206 nM; for remaining activity at 0.00453618 µM: compound 4.53618 nM; for remaining activity at 0.0136085 µM: compound 13.6085 nM; for remaining activity at 0.0408257 µM: compound 40.8257 nM; for remaining activity at 0.122477 µM: compound 122.477 nM; for remaining activity at 0.367431 µM: compound 367.431 nM; for remaining activity at 1.10229 µM: compound 1102.29 nM; for remaining activity at 3.30688 µM: compound 3306.88 nM; for remaining activity at 30.581 µM: compound 30581 nM; for remaining activity at 100 µM: compound 100000 nM
T2 sequence (P09936 1-223): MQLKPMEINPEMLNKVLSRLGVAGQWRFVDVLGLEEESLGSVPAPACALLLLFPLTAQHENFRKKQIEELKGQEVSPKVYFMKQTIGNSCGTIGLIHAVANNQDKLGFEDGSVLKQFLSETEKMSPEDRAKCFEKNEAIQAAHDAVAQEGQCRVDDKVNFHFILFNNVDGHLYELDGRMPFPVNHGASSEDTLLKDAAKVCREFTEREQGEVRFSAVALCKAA

UCHL1 [2] = biological target: T2, UCHL1; test: Thermal shift assay; format: binding; settings: UCHL1 1 µM, 1 h, replicates
Procedure: Reactions were performed in white 96-well PCR plates (Bio-Rad). UCHL1 was diluted in thermal shift buffer (1x PBS, 5 mM DTT) to a 4x concentration of 4 µM. The protein was then mixed with 4x compound dissolved in thermal shift buffer in a 1:1 ratio. To each well was added 20 µL of DUB-Inhibitor solution, followed by 1 h incubation time. To each well was then added 20 µL 4x SYPRO Orange in thermal shift buffer. After sealing the plates with a transparent film, thermal denaturation (gradient: 20–90 °C; Increment: 0.3 °C, hold for 5 s before read) was performed and monitored by a Bio-Rad Connect cycler.

UCHL1 [3] = biological target: T2, UCHL1; test: Identification of probe-labeled proteins with mass spectrometry (pulldown enrichment); settings: HEK293 cells; 1 µM; 24 h
Procedure: Cells were cultured, treated with a compound, and lysed as described above. The cell lysate was diluted to a protein concentration of 2 mg/mL with ABP lysis buffer. 1 µL of each click reagent (see above) were added to each sample, followed by an incubation period of one hour at room temperature with protection from light. The sample volume was adjusted to 1000 µL with PBS and 30 µL of a NeutrAvidin (Thermo Fisher) bead slurry (prewashed 3x with PBS) were added to each sample. The samples were incubated for one hour to overnight on a rotator at 15 rpm at 4 °C. Beads were pelleted by centrifugation, the supernatant was discarded, and the beads were washed six times (1x with ½x lysis buffer, followed by five washes with PBS). After removing the washing solution completely, the beads were subjected to reduction with dithiothreitol (1 mM), alkylation with chloroacetamide (5 mM) and on-bead digestion with first LysC (Serva Biotech, 1 h, 37 °C), followed by trypsin (Sigma Aldrich, 1 h, overnight). Tryptic peptides were desalted with C18 StageTips and analyzed by nano-HPLC-MS/MS.
An Ultimate 3000 RSLC nano-HPLC system and a Hybrid-Orbitrap mass spectrometer (Q Exactive Plus) equipped with a nano-spray source (Thermo Fisher Scientific) was used. The protein fragments were enriched on a C18 PepMap 100 column (5 μm, 100 Å, 300 μm ID * 5 mm, Dionex) using 0.1% TFA, at a flow rate of 30 μL/min, for 5 min and separated on a C18 PepMap 100 column (3 μm, 100 Å, 75 μm ID × 50 cm) using a linear gradient (5–30% ACN/H2O + 0.1% formic acid over 90 min) with a flow rate of 300 nL/min. […] Signals in the mass range of m/z 300 to 1650 were acquired at a resolution of 70,000 for the full scan, followed by ten high-energy collision-dissociation (HCD) MS/MS scans of the most intense at least doubly charged ions at a resolution of 17,500. Proteins were relatively quantified by using MaxQuant[60] v.2.0.3.1, including the Andromeda search algorithm and searching the Homo sapiens reference proteome of the UniProt database. Briefly, an MS/MS ion search was performed for enzymatic trypsin cleavage, allowing two missed cleavages. Carbamidomethylation was set as a fixed protein modification, and oxidation of methionine and acetylation of the N-terminus were set as variable modifications. The mass accuracy was set to 20 parts per million (ppm) for the first search and to 4.5 ppm for the second search. The false discovery rates for peptide and protein identification were set to 0.01. Only proteins for which at least two peptides were quantified were chosen for further validation. Relative quantification of proteins was performed by using the label-free quantification algorithm implemented in MaxQuant. Statistical data analysis of pulldown samples was performed using Perseus[61] v.1.6.15.0, including proteins which were identified in at least four of the five biological replicates which were used per condition. Label-free quantification (LFQ) intensities were log-transformed (log2); replicate samples were grouped together. Pairwise comparisons of groups were performed separately. Missing values were imputed using small normally distributed values (width 0.3, downshift 1.8) and a two-sided t-test (s0 = 5, FDR = 0.001) was performed.

[4] = mean ± SD of independent experiments, read-out: IC50 (UCHL1)
[5] = read-out: UCHL1 activity, data point mean
[6] = source data Fig. 3b, read-out: Averaged IC50s from independent experiments (single experiments)

SMILES	IC50 (UCHL1 [1]; [4]) [nM]	melting temperature (Tm) of UCHL1 (UCHL1 [2]; compound 1.25 µM)	melting temperature (Tm) of UCHL1 (UCHL1 [2]; compound 2.5 µM)	melting temperature (Tm) of UCHL1 (UCHL1 [2]; compound 5 µM)	remaining activity at 0.000610352 µM (UCHL1 [1]; [5]) [%]	remaining activity at 0.0012207 µM (UCHL1 [1]; [5]) [%]	remaining activity at 0.00244141 µM (UCHL1 [1]; [5]) [%]	remaining activity at 0.00488281 µM (UCHL1 [1]; [5]) [%]	IC50 (UCHL1 [1]; read-out: IC50 (UCHL1)) [nM]	remaining activity at 0.00050402 µM (UCHL1 [1]; [5]) [%]	remaining activity at 0.00151206 µM (UCHL1 [1]; [5]) [%]	remaining activity at 0.00453618 µM (UCHL1 [1]; [5]) [%]	remaining activity at 0.0136085 µM (UCHL1 [1]; [5]) [%]	remaining activity at 0.0408257 µM (UCHL1 [1]; [5]) [%]	remaining activity at 0.122477 µM (UCHL1 [1]; [5]) [%]	remaining activity at 0.367431 µM (UCHL1 [1]; [5]) [%]	remaining activity at 1.10229 µM (UCHL1 [1]; [5]) [%]	remaining activity at 3.30688 µM (UCHL1 [1]; [5]) [%]	remaining activity at 30.581 µM (UCHL1 [1]; [5]) [%]	remaining activity at 100 µM (UCHL1 [1]; [5]) [%]	other results
N#CN1CCC[C@H]1C(=O)N1CCc2c(-c3ccnc4[nH]ccc34)cccc21 [Cpd117, reference compound]	9 ± 3																				inhibition of cellular UCHL1 (UCHL1 in HEK293 cells; after 1 h (Supplementary Fig. 5f)): very low degree of inhibition; inhibition of cellular UCHL1 (UCHL1 in HEK293 cells; after 24 h incubation (Supplementary Fig. 5f)): no inhibition of cellular UCHL1 at all
COCCNC(=O)c1ccc(-n2cnc(NC(=O)[C@H]3CCN(C#N)C3)c2)cc1 [Cpd158, reference compound]		59.4	59.4	59.1 and 59.4	96.9	97.3	95.8	91.1													inhibition of cellular UCHL1 (UCHL1 in HEK293 cells; HEK293 cells, 1 and 5 µM, 1 h and 24 h (Supplementary Fig. 5f)): time- and concentration-dependent inhibition; remaining activity at 0.00976562 µM (UCHL1 [1]; [5]): 90.7%; remaining activity at 0.0195312 µM (UCHL1 [1]; [5]): 86.9%; remaining activity at 0.0390625 µM (UCHL1 [1]; [5]): 82%; remaining activity at 0.078125 µM (UCHL1 [1]; [5]): 76.7%; remaining activity at 0.15625 µM (UCHL1 [1]; [5]): 62.5%; remaining activity at 0.3125 µM (UCHL1 [1]; [5]): 34.6%; remaining activity at 0.625 µM (UCHL1 [1]; [5]): 14.3%; remaining activity at 1.25 µM (UCHL1 [1]; [5]): 4.23%; remaining activity at 2.5 µM (UCHL1 [1]; [5]): 2.34%; remaining activity at 5 µM (UCHL1 [1]; [5]): 1.97%; remaining activity at 10 µM (UCHL1 [1]; [5]): 1.42%; IC50 (UCHL1 [1]; [6]): 222 nM and 36 nM and 129 nM and 153 nM and 104 nM
C#CCCCNC(=O)c1ccc(-n2cnc(NC(=O)[C@@H]3CCNC3)c2)cc1 [GK12R]		53.4 and 52.8 and 53.1	53.4	53.1					> 100000	95.8	97.9	98	94.4	95.3	95.6	94.6	95.5	94.2	93.5	99.1	
C#CCCCNC(=O)c1ccc(-n2cnc(NC(=O)[C@H]3CCNC3)c2)cc1 [GK12S]		53.4 and 53.1	53.4	53.4 and 53.1					> 100000	91.5	91.7	90.7	97.1	88.7	91.4	92.8	91.5	88.8	90.9	101	
C#CCCCNC(=O)c1ccc(-n2cnc(NC(=O)[C@@H]3CCN(C#N)C3)c2)cc1 [GK13R]	2090 ± 164	53.1 and 53.4	53.7 and 53.4	54 and 54.6	98.3	99.2	99.4	97.8	2000												change in log2 enrichment values of UCHL1, GK13S vs GK13R (UCHL1 [3]): 2; inhibition of cellular UCHL1 (UCHL1 in HEK293 cells; HEK293 cells, 24 h): complete inhibition of UCHL1; remaining activity at 0.000305176 µM (UCHL1 [1]; compound 0.305176 nM, read-out: UCHL1 activity, data point mean): 103%; remaining activity at 0.00976562 µM (UCHL1 [1]; [5]): 96.8%; remaining activity at 0.0195312 µM (UCHL1 [1]; [5]): 95.9%; remaining activity at 0.0390625 µM (UCHL1 [1]; [5]): 98.3%; remaining activity at 0.078125 µM (UCHL1 [1]; [5]): 93.7%; remaining activity at 0.15625 µM (UCHL1 [1]; [5]): 88%; remaining activity at 0.3125 µM (UCHL1 [1]; [5]): 80.6%; remaining activity at 0.625 µM (UCHL1 [1]; [5]): 70.3%; remaining activity at 1.25 µM (UCHL1 [1]; [5]): 52.9%; remaining activity at 2.5 µM (UCHL1 [1]; [5]): 34.3%; remaining activity at 5 µM (UCHL1 [1]; [5]): 13.6%; remaining activity at 10 µM (UCHL1 [1]; [5]): 3.56%; IC50 (UCHL1 [1]; [6]): 2210 nM and 1980 nM
C#CCCCNC(=O)[C@@H]1CCN(C#N)C1 [GK16R]		53.4 and 53.1	53.1 and 53.4	53.4 and 53.1					> 100000	91.8	91.4	89.6	96.6	94.5	93.7	92.4	91.5	89	83.6	80.5	
